One test concerns HEK-mFAP cells. As to the kind of experiment: CellTiter-Blue cell viability assay with HEK-mFAP cells. The test is classed as cell-based, Human. The note with it: for activation by FAP expressed by HEK-mFAP cells / effect of addition of the FAP inhibitor 5057 on activation: FIG. 15A, 15B. (In general: Alamar Blue is a resazurin reagent that responds to reducing activity.)
In the next test the test system is HEK-Mock cells. Description: CellTiter-Blue cell viability assay with HEK-Mock cells. Particulars: Homo sapiens. The class given is cell-based.
The subject of another test is OVCAR-3. Description: CellTiter-Blue cell viability assay, OVCAR-3. The note with it: 5061DOX assay 2, OVCAR-3, 72 hour. The test is classed as cell-based.
Another test deals with SK-OV-3. Description: CellTiter-Blue cell viability assay, SK-OV-3. The class given is cell-based. The note with it: 5061DOX assay 2, SK-OV-3, 72 hour.
The next test concerns MCF-7. Description: CellTiter-Blue cell viability assay, MCF-7. The class given is cell-based. The note with it: 5061DOX assay 2, MCF-7, 72 hour.
In another test the target is T1, PREP (Homo sapiens, UniProt P48147).
T1 sequence (P48147 1-710): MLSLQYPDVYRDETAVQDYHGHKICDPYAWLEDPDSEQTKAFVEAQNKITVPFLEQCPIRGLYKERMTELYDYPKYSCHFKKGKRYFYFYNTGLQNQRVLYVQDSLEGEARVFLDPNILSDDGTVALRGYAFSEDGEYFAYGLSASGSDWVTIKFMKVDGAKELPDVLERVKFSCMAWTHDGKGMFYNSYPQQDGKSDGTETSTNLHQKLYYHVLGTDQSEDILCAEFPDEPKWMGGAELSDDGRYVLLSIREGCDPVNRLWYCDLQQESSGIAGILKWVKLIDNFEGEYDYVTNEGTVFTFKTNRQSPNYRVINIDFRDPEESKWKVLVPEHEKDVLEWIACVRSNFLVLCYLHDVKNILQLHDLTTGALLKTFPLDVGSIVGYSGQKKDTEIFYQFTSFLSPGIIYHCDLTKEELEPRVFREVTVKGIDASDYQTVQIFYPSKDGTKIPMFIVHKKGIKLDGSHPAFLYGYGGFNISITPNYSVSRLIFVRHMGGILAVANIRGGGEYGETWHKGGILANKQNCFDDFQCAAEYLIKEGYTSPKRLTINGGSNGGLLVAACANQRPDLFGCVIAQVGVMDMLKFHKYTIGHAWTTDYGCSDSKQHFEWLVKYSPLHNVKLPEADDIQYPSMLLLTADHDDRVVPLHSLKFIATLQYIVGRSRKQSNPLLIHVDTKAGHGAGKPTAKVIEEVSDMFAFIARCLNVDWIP
As to the kind of experiment: Specificity of activation: 24 h digestion with PREP. The test is classed as biochemical. Particulars: 100 μM prodrug, 37° C. How it is done: (§1) Total doxorubicin was measured for each assay.

In test [1] the target is dipeptidyl peptidase IV (DPP IV) (Homo sapiens, UniProt P27487). Description: Specificity of activation: 24 h digestion with DPP IV. The class given is biochemical. Particulars: 100 μM prodrug, 37° C. As to the method:
as §1

Where [2] appears, read: Homo sapiens, 72 h, MK-2206 / Akt inhibitor prodrugs, HEK-mFAP cells, 72 hour incubation, read-out: EC50 (prodrug alone).
Setting [3] is: read-out: EC50 (doxorubicin alone).
[4] abbreviates: Homo sapiens, read-out: EC50 (prodrug + 100 uM 5057).
Setting [5] is: Homo sapiens, read-out: EC50 (prodrug alone).

Like-named read-outs stand apart in the source and are kept apart here. Bounds are passed on as bounds.

A word on the EC50: it is the concentration that produces a half-maximal response.

Chain of dipeptidyl peptidase IV (DPP IV) (P27487 whole entry, species assumed): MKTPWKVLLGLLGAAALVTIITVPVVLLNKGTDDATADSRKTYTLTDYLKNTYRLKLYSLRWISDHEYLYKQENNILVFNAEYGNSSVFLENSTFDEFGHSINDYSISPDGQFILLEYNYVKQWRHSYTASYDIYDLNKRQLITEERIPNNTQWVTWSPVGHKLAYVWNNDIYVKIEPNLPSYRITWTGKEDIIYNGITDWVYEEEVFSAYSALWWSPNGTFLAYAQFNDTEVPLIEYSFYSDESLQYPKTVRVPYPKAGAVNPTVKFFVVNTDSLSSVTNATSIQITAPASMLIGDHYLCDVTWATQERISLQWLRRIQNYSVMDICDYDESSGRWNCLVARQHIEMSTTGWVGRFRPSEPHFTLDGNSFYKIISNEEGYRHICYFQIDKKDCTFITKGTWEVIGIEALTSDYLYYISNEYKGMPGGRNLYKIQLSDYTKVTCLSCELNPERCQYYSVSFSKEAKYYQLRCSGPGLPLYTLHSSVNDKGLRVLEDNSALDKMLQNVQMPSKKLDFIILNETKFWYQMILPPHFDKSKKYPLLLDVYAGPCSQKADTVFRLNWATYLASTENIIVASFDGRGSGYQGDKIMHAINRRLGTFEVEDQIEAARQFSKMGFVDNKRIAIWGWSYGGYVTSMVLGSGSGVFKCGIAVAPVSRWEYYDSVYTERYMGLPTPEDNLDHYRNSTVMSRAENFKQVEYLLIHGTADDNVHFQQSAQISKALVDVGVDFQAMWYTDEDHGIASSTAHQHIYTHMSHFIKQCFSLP

Regarding AZD5363 [reference compound], the EC50 with HEK-mFAP cells (HEK-mFAP cells, 72 hour, read-out: EC50 (AZD5363)) came out at 2.5 µM.
Consider `C[C@@H](NC(=O)c1ccncc1)C(=O)N1CCC[C@H]1C(=O)Nc1ccc(COC(=O)NC2(c3ccc(-c4nc5ccn6c(=O)[nH]nc6c5cc4-c4ccccc4)cc3)CCC2)cc1` [Compound 5157], for which the EC50 in the test on HEK-Mock cells (5157 assay, HEK-Mock, read-out: EC50 (prodrug + 100 uM 3099-15)) is greater than 2.5 µM; in the test with HEK-Mock cells (5157 assay, HEK-Mock, read-out: EC50 (prodrug alone)), greater than 2.5 µM; in the test with HEK-mFAP cells (Homo sapiens, 5157 assay, HEK-mFAP, read-out: EC50 (prodrug + 100 uM 3099-15)), greater than 2.5 µM; in the test on HEK-mFAP cells (Homo sapiens, 5157 assay, HEK-mFAP, read-out: EC50 (prodrug alone)) it was 2.9 µM.
For `COc1cccc2c1C(=O)c1c(O)c3c(c(O)c1C2=O)C[C@@](O)(C(=O)CO)C[C@@H]3OC1CC(NC(=O)[C@@H]2CC(F)(F)CN2C(=O)[C@@H](C)NC(=O)c2ccnc3ccccc23)C(O)C(C)O1` (stereo partly drawn) [Compound 5107DOX], the EC50 in the test with HEK-mFAP cells (Homo sapiens, 5107DOX assay, HEK-mFAP, 72 hour, read-out: EC50 (prodrug + 100 uM 5057-2)) is greater than 100 µM; in the test on HEK-mFAP cells (Homo sapiens, 5107DOX assay, HEK-mFAP, 72 hour, read-out: EC50 (prodrug alone)) it was 0.94 µM.
With `CCn1c(-c2nonc2N)nc2c(C#CC(C)(C)O)ncc(OC[C@H]3CCCN(C(=O)[C@@H]4CC(F)(F)CN4C(=O)CNC(=O)c4ccnc5ccccc45)C3)c21` [Compound 5188], the half-maximal effective concentration (EC50) in the test with HEK-mFAP cells (setting [2]) was greater than 25 µM.
On to `O=C(NC1(C(=O)N[C@@H](CCO)c2ccc(Cl)cc2)CCN(c2ncnc3[nH]ccc23)CC1)OCc1ccc(NC(=O)[C@@H]2CC(F)(F)CN2C(=O)CNC(=O)c2ccnc3ccccc23)cc1` [Compound 5189], for which the EC50 was found to be 5.8 µM with HEK-mFAP cells (Homo sapiens, 72 h, Akt inhibitor prodrugs, HEK-mFAP cells, 72 hour, read-out: EC50 (prodrug + 100 uM 5057-2)) and 3 µM with HEK-mFAP cells (setting [2]).
For the compound `NC1(c2ccc(-c3nc4ccn5c(=O)[nH]nc5c4cc3-c3ccccc3)cc2)CCC1` [MK-2206, reference compound], the EC50 in the test with HEK-Mock cells (5157 assay, HEK-Mock, read-out: EC50 (MK-2206 alone)) was determined as 6.7 µM; in the test on HEK-mFAP cells (Homo sapiens, 5157 assay, HEK-mFAP, read-out: EC50 (MK-2206 alone)) it was 5.3 µM; in the test with HEK-mFAP cells (Homo sapiens, 72 h, HEK-mFAP cells, 72 hrs, read-out: EC50 (MK-2206)), 9.1 µM.
For `O=C(NC1(c2ccc(-c3nc4ccn5c(=O)[nH]nc5c4cc3-c3ccccc3)cc2)CCC1)OCc1ccc(NC(=O)[C@@H]2CC(F)(F)CN2C(=O)CNC(=O)c2ccnc3ccccc23)cc1` [Compound 5173], in the test on HEK-mFAP cells, the “activation by FAP expressed by HEK-mFAP cells” value is “appears to be activated by the FAP expressed by the HEK-mFAP cells” and the “effect of addition of the FAP inhibitor 5057 on activation” value is given as “blocks this activation”. Also, in the test with HEK-mFAP cells (setting [2]), the concentration for a half-maximal effect (EC50) is greater than 2.5 µM.
Turning to `Cn1ncc(Cl)c1-c1cc(C(=O)N[C@H](CN)Cc2cccc(F)c2)sc1Cl` [GSK2 110183, reference compound], the EC50 in the test on HEK-mFAP cells (HEK-mFAP cells, 72 hrs, read-out: EC50 (GSK2 110183)) was 0.49 µM.
Consider `NNc1ccc(C(=O)NCC(=O)N2CC(F)(F)C[C@H]2C(=O)Nc2ccc(COC(=O)NC3(c4ccc(-c5nc6ccn7c(=O)[nH]nc7c6cc5-c5ccccc5)cc4)CCC3)cc2)cn1` [Compound 5192], for which the EC50 with HEK-mFAP cells (setting [2]) was greater than 3 µM.
For `COc1cccc2c1C(=O)c1c(O)c3c(c(O)c1C2=O)C[C@@](O)(C(=O)CO)C[C@@H]3O[C@H]1C[C@H](N)[C@H](O)[C@H](C)O1` [doxorubicin, reference compound], the figures for the EC50 with OVCAR-3 (setting [3]), in the test on SK-OV-3 (setting [3]) and in the test with MCF-7 (setting [3]) were 1.7 µM, 0.44 µM and 54 µM, respectively.
As to `CCn1c(-c2nonc2N)nc2c(C#CC(C)(C)O)ncc(OC[C@H]3CCCNC3)c21` [GSK690693, reference compound], in the test on HEK-mFAP cells (Homo sapiens, 72 h, HEK-mFAP cells, 72 hour, read-out: EC50 (GSK690693)), the EC50 was determined as 15 µM.
With `Cn1ncc(Cl)c1-c1cc(C(=O)N[C@H](CNC(=O)[C@@H]2CC(F)(F)CN2C(=O)CNC(=O)c2ccnc3ccccc23)Cc2cccc(F)c2)sc1Cl` [Compound 5184], the EC50 in the test with HEK-mFAP cells (Homo sapiens, 72 h, Akt inhibitor prodrugs, HEK-mFAP cells, 72 hrs, read-out: EC50 (prodrug alone)) is 0.93 µM.
`NCC(=O)NNc1ccc(C(=O)NCC(=O)N2CC(F)(F)C[C@H]2C(=O)Nc2ccc(COC(=O)NC3(c4ccc(-c5nc6ccn7c(=O)[nH]nc7c6cc5-c5ccccc5)cc4)CCC3)cc2)cn1` [Compound 5193]: the EC50 in the test on HEK-mFAP cells (setting [2]) was found to be 2.6 µM.
Take `COc1cccc2c1C(=O)c1c(O)c3c(c(O)c1C2=O)C[C@@](O)(C(=O)CO)C[C@@H]3OC1CC(NC(=O)[C@@H]2CCCN2C(=O)[C@@H](C)NC(=O)c2ccnc3cccc(Br)c23)C(O)C(C)O1` (stereo partly drawn) [Compound 5061DOX]: the EC50 in the test on OVCAR-3 (setting [4]) is greater than 100 µM; in the test with OVCAR-3 (Homo sapiens, read-out: EC50 (prodrug = 25 nM FAP)), 1.5 µM; in the test on OVCAR-3 (setting [5]), greater than 100 µM; in the test with HEK-Mock cells (72 h, 5061DOX assay 1, HEK-Mock, 72 hour, read-out: EC50 (prodrug + 25 nM FAP)) it was 0.28 µM; in the test with HEK-Mock cells (72 h, 5061DOX assay 1, HEK-Mock, 72 hour, read-out: EC50 (prodrug + 50 nM PREP)), greater than 100 µM; in the test on HEK-Mock cells (72 h, 5061DOX assay 1, HEK-Mock, 72 hour, read-out: EC50 (prodrug + 100 uM 5057)), greater than 100 µM. The EC50 in the test with HEK-Mock cells (72 h, 5061DOX assay 1, HEK-Mock, 72 hour, read-out: EC50 (prodrug alone)) was greater than 100 µM; in the test with HEK-Mock cells (72 h, 5061DOX assay 2, HEK-Mock, 72 hour, read-out: EC50 (prodrug + 25 nM FAP)) it was 0.25 µM; in the test with HEK-Mock cells (72 h, 5061DOX assay 2, HEK-Mock, 72 hour, read-out: EC50 (prodrug alone)), greater than 100 µM; in the test on SK-OV-3 (Homo sapiens, read-out: EC50 (prodrug + 25 nM FAP)) it was 0.9 µM; in the test with SK-OV-3 (setting [4]) it was greater than 100 µM; with SK-OV-3 (setting [5]) it was greater than 100 µM. Besides, the EC50 in the test on HEK-mFAP cells (5061DOX assay 1, HEK-mFAP, 72 hour, read-out: EC50 (prodrug alone)) is greater than 100 µM; with HEK-mFAP cells (5061DOX assay 2, HEK-mFAP, 72 hour, read-out: EC50 (prodrug + 100 uM 5057)), greater than 100 µM; with HEK-mFAP cells (Homo sapiens, 5061DOX assay 1, HEK-mFAP, 72 hour, read-out: EC50 (prodrug + 100 uM 5057)) it was greater than 100 µM; in the test with HEK-mFAP cells (Homo sapiens, 5061DOX assay 2, HEK-mFAP, 72 hour, read-out: EC50 (prodrug alone)), greater than 100 µM; with MCF-7 (Homo sapiens, MCF7, read-out: EC50 (prodrug + 25 nM FAP)), greater than 100 µM; in the test with MCF-7 (Homo sapiens, MCF7, read-out: EC50 (prodrug + 100 uM 5057)), greater than 100 µM. The EC50 in the test with MCF-7 (Homo sapiens, MCF7, read-out: EC50 (prodrug alone)) was greater than 100 µM.
Consider `COc1cccc2c1C(=O)c1c(O)c3c(c(O)c1C2=O)C[C@@](O)(C(=O)CO)C[C@@H]3OC1CC(NC(=O)[C@@H]2CCCN2C(=O)[C@@H](C)NC(=O)[C@H](CO)NC(=O)CCC(=O)O)C(O)C(C)O1` (stereo partly drawn) [Compound 3996DOX], for which, on PREP, the “doxorubicin released by PREP” value is “essentially none by PREP or DPP IV”. Moreover, the “doxorubicin released by DPP IV” value in test [1] is listed as “essentially none by PREP or DPP IV”.
`C[C@@H](NC(=O)c1ccnc2ccccc12)C(=O)N1CC(F)(F)C[C@H]1C(=O)Nc1ccc(COC(=O)NC2(c3ccc(-c4nc5ccn6c(=O)[nH]nc6c5cc4-c4ccccc4)cc3)CCC2)cc1` [Compound 5174]: in the test with HEK-mFAP cells, the “activation by FAP expressed by HEK-mFAP cells” value is given as “appears to be activated by the FAP expressed by the HEK-mFAP cells” and the “effect of addition of the FAP inhibitor 5057 on activation” value is on record as “blocks this activation”. The EC50 in the test with HEK-mFAP cells (setting [2]) is 4.6 µM.

Source of the values: US12121505B2, “Fap-activated therapeutic agents, and uses related thereto” (BACH BIOSCIENCES, LLC, priority 2014, dated 2024).
